SMILES strings stand for the structures. ≈ marks a conversion by molar mass, not a printed value. Where two headings read alike, the source gives them in different places.

Test [1] relates to Staphylococcus aureus 226. Put plainly: in vitro antimicrobial activity, two-fold agar plate dilution method, S. aureus 226. Conditions: Table 1, S. aureus 226, 37° C., 20 hours, read-out: minimum inhibitory concentration (MIC). The class given is cell-based. The protocol:
(§1) The in vitro tests of antimicrobial activity of the compared compounds were determined by the two-fold agar plate dilution method described as follows: […]

The subject of test [2] is Staphylococcus aureus 278. Put plainly: in vitro antimicrobial activity, two-fold agar plate dilution method, S. aureus 278. The class given is cell-based. Conditions: Table 1, S. aureus 278, 37° C., 20 hours, read-out: minimum inhibitory concentration (MIC). The protocol:
as §1

The test system of test [3] is Staphylococcus aureus 213. Put plainly: in vitro antimicrobial activity, two-fold agar plate dilution method, S. aureus 213. The format is cell-based. Conditions: Table 1, S. aureus 213, 37° C., 20 hours, read-out: minimum inhibitory concentration (MIC). The protocol:
as §1

Test [4] relates to Staphylococcus aureus 277. Put plainly: in vitro antimicrobial activity, two-fold agar plate dilution method, S. aureus 277. Conditions: Table 1, S. aureus 277, 37° C., 20 hours, read-out: minimum inhibitory concentration (MIC). The class given is cell-based. The protocol:
as §1

The test system of test [5] is Bacillus subtilis ATCC-6633. Put plainly: in vitro antimicrobial activity, two-fold agar-plate dilution method, B. subtilis ATCC-6633. The class given is cell-based. The protocol: (§2) In vitro antimicrobial activity was determined by the two-fold agar-plate dilution method as described below.
(§3) One loopful of an overnight culture of each test strain in Trypticase-soy broth (10^8 viable cells per ml) was streaked on heart infusion agar (HI-agar) containing graded concentration of antibiotics, and the minimum inhibitory concentration (MIC) was expressed in terms of meg/ml after incubation at 37° C. for 20 hours.
(§4) The data in Table 1 below present a comparison between the 2-(C1 -C6 alkyl)-cephem compounds of the present invention and known cephem compounds structurally analogous to the present compounds, differing only by alkyl substitution in the 3-position. The in vitro tests of antimicrobial activity of the compared compounds were determined by the two-fold agar plate dilution method described as follows:
(§5) One loopful of an overnight culture of each test strain in Trypticase-soy broth (10^8 viable cells per ml) was streaked on heart infusion agar (HI sugar) containing graded concentration of antibiotics, and the minimum inhibitory concentration (MIC) was expressed in terms of mcg/ml after incubation at 37° C. for 20 hours.

Test [6] concerns Staphylococcus aureus 206. Put plainly: in vitro antimicrobial activity, two-fold agar plate dilution method, S. aureus 206. The format is cell-based. Conditions: Table 1, S. aureus 206, 37° C., 20 hours, read-out: minimum inhibitory concentration (MIC). The protocol: as §1
The subject of test [7] is E. coli 327. Put plainly: in vitro MIC against E. coli 327 at different inoculum sizes (Table 2). The class given is cell-based.
Test [8] concerns E. coli 327. Put plainly: protecting effect against experimental infections in mice. The settings on record: E. coli 327, intraperitoneal inoculation 8.5×10^2 cells/mouse, subcutaneous one hour after challenge, survival after one week, probit method. The format is in vivo, mice (male ICR strain). The protocol: The following test describes the method of estimating the protecting effects of Applicants' compound (18) versus cited […], "Keflex", against experimental infections in mice.
Male ICR strain mice aged 4 weeks, each weighing 20-23 g were used in groups of 8 mice. The organisms precultured overnight at 37° C. on HI-agar were suspended in 5% mucin solution to obtain cell concentrations of 8.5×10^2 cells/mouse. Mice were inoculated intraperitoneally with 0.5 ml of the suspension. Each of the test antibiotics was given subcutaneously to the mice one hour after challenge. The ED50 values were found by the probit method from the number of surviving mice after one week of observation.

The test system of test [9] is Staphylococcus aureus 209 P JC-1. Put plainly: in vitro antimicrobial activity, two-fold agar-plate dilution method, S. aureus 209 P JC-1. The format is cell-based. The protocol:
as §2, §3, §4, §5

Setting [10] is: ATCC6633, Table 1, B. subtilis ATCC-6633, 37° C., 20 hours, read-out: minimum inhibitory concentration (MIC).
[11] abbreviates: 209PJC1, Table 1, S. aureus 209 P JC-1, 37° C., 20 hours, read-out: minimum inhibitory concentration (MIC).
Where [12] appears, read: ATCC6633, B. subtilis ATCC-6633, 37° C., 20 hours, HI-agar, read-out: MIC.
Where [13] appears, read: S. aureus 209-P JC-1, 37° C., 20 hours, HI-agar, read-out: MIC.

Take `CC1=C(C(=O)O)N2C(=O)C(NC(=O)C(N)c3ccccc3)[C@H]2SC1` (stereo partly shown) [cited compound (18), 3-Methyl-7-(2-phenylglycyl)amino-3-cephem-4-carboxylic acid, reference compound]: the MIC in [1] came out at 12.5 µg/mL (≈ 36 µM); in test [2] it was 3.13 µg/mL (≈ 9.01 µM); in test [3] it was 12.5 µg/mL (≈ 36 µM); in [4] it was 3.13 µg/mL (≈ 9.01 µM); in [5] (ATCC6633, 20 h, read-out: minimum inhibitory concentration (MIC)) it was 1.56 µg/mL (≈ 4.49 µM); in test [6] it was 6.25 µg/mL (≈ 18 µM). The MIC came to 6.25 µg/mL (≈ 18 µM) in test [7] (Escherichia coli, 327, E. coli 327, inoculum size 10^4); 12.5 µg/mL (≈ 36 µM) in test [7] (Escherichia coli, 327, E. coli 327, inoculum size 10^6); 100 µg/mL (≈ 288 µM) in [7] (Escherichia coli, 327, E. coli 327, inoculum size 10^8); 3.13 µg/mL (≈ 9.01 µM) in test [9] (209PJC1, 20 h, read-out: minimum inhibitory concentration (MIC)). The compound also displayed an ED50 in test [8] of 1.06 mg/mouse.

As for `CC1=C(C(=O)O)N2C(=O)C(NC(=O)CC#N)[C@H]2SC1` (stereo partly shown) [cited compound (13), 3-Methyl-7-(2-cyanoacetamido)-3-cephem-4-carboxylic acid, reference compound], the MIC in test [1] was 12.5 µg/mL (≈ 44.4 µM); in test [2], 12.5 µg/mL (≈ 44.4 µM); in [3], 12.5 µg/mL (≈ 44.4 µM); in [4] it was 12.5 µg/mL (≈ 44.4 µM); in test [5] (setting [10]), 3.13 µg/mL (≈ 11.1 µM); in [6], 6.25 µg/mL (≈ 22.2 µM). For the same compound, the MIC in test [9] (setting [11]) is 6.25 µg/mL (≈ 22.2 µM).

In the case of `CC1C=C(C(=O)O)N2C(=O)C(NC(=O)C(N=[N+]=[N-])c3ccccc3)[C@H]2S1` (stereo partly shown) [Applicants' compound (10), 2-Methyl-7-(2-azido-2-phenylacetamido)-3-cephem-4-carboxylic acid], the MIC in [1] came out at 1.56 µg/mL (≈ 4.18 µM); in [2], 1.56 µg/mL (≈ 4.18 µM); in test [3] it was 1.56 µg/mL (≈ 4.18 µM); in test [4] it was 12.5 µg/mL (≈ 33.5 µM); in test [5] (setting [12]), 0.39 µg/mL (≈ 1.04 µM); in [5] (setting [10]), 0.39 µg/mL (≈ 1.04 µM). Further, the MIC in test [6], in test [9] (setting [11]) and in [9] (setting [13]) was 1.56 µg/mL (≈ 4.18 µM) in each case.

For the compound `CC1C=C(C(=O)O)N2C(=O)C(NC(=O)Cc3cnsn3)[C@H]2S1` (stereo partly shown) [Applicants' compound (12), 2-Methyl-7-[2-(1,2,5-thiadiazol-3-yl)acetamido]-3-cephem-4-carboxylic acid], the MIC in test [1] came to 3.13 µg/mL (≈ 9.2 µM); in test [2], 6.25 µg/mL (≈ 18.4 µM); in [3], 6.25 µg/mL (≈ 18.4 µM); in [4], 6.25 µg/mL (≈ 18.4 µM); in test [5] (setting [12]), 1.56 µg/mL (≈ 4.58 µM); in [5] (setting [10]), 1.56 µg/mL (≈ 4.58 µM). Moreover, the MIC in [6], in [9] (setting [11]) and in test [9] (setting [13]) was 3.13 µg/mL (≈ 9.2 µM) each time.

Regarding `CC1C=C(C(=O)O)N2C(=O)C(NC(=O)C(C(=O)Oc3ccc4c(c3)CCC4)c3ccccc3)[C@H]2S1` (stereo partly shown) [Applicants' compound (3), 2-Methyl-7-[2-(5-indanyloxy)carbonyl-2-phenylacetamido]-3-cephem-4-carboxylic acid], the MIC in test [1] came to 0.2 µg/mL (≈ 0.406 µM); in test [2], 0.39 µg/mL (≈ 0.792 µM); in test [3], 0.39 µg/mL (≈ 0.792 µM); in test [4], 0.78 µg/mL (≈ 1.58 µM); in test [5] (setting [12]), 6.25 µg/mL (≈ 12.7 µM); in test [5] (setting [10]), 6.25 µg/mL (≈ 12.7 µM). In addition, the figures for the MIC in test [6], in [9] (setting [11]) and in [9] (setting [13]) were 0.39 µg/mL (≈ 0.792 µM), 1.56 µg/mL (≈ 3.17 µM) and 1.56 µg/mL (≈ 3.17 µM), respectively.

Regarding `CC1=C(C(=O)O)N2C(=O)C(NC(=O)C(O)c3ccccc3)[C@H]2SC1` (stereo partly shown) [cited compound (7), 3-Methyl-7-(2-hydroxy-2-phenylacetamido)-3-cephem-4-carboxylic acid, reference compound], the MIC in [1] was found to be 12.5 µg/mL (≈ 35.9 µM); in [2], 12.5 µg/mL (≈ 35.9 µM); in [3] it was 25 µg/mL (≈ 71.8 µM); in test [4], 12.5 µg/mL (≈ 35.9 µM); in test [5] (setting [10]), 1.56 µg/mL (≈ 4.48 µM); in test [6], 12.5 µg/mL (≈ 35.9 µM). Moreover, in [9] (setting [11]), the MIC came to 3.13 µg/mL (≈ 8.98 µM).

These data come from patent US4308380A, “2-Lower alkyl-2 or 3-cephem-4-carboxylic acid derivatives” (Fujisawa Pharmaceutical Co., Ltd., priority 1973, dated 1981).
